The target in one experiment is T1, CXCL10 (Homo sapiens, UniProt P02778).
T1 construct: purchased Peprotech
T1 sequence (P02778 22-98): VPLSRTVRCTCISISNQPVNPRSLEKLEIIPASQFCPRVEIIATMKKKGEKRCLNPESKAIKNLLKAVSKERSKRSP
The experiment in a line: CXCL10-induced activated T-cell migration, transwell assay. The experiment is classed as cell-based. To be noted: peptide 10 μM, chemokine at EC80. The procedure:
(§1) FIG. 2. […] BK1.2 is described in (Darlot, 2020). […] Chemokines used are indicated by the name, followed in parenthesis by the supplier code (P in supplier code indicates Peprotech). […] All experiments were performed at EC80 doses of indicated chemokine. Data are shown as box-whisker plots of three technical and three biological replicates. Statistically significant differences (compared to control, indicated by #), using Dunnett's test with correction for multiple comparisons, are indicated by asterisks: ****=P≤0.0001, ***=P≤0.001, **=P≤0.01, *=P≤0.05.
FIG. 11. […] Technical replicates are shown as individual data points. […] The response curve (solid blue line) and its 95% confidence interval (grey ribbon) were calculated using a 4-parameter log-logistic plot.
Briefly, cell migration assays use THP1 cells (human monocyte) and primary human buffy coat white cells (consisting of neutrophil granulocytes, monocytes, and lymphocytes), and activated T-cells. THP1 cells and primary monocytes respond to CCL2, CCL3, CCL5, CCL8 and CXCL4, granulocytes to CXCL1 and CXCL8, activated T-cells to CXCL9/10/11. Assays are performed in 96-well Boyden chambers, and migrated cells counted and characterized using and ATTUNE Flow Cytometer as described. […]

The next experiment has as its target T2, CXCL9 (Homo sapiens, UniProt Q07325).
T2 construct: purchased Peprotech
T2 sequence (Q07325 23-125): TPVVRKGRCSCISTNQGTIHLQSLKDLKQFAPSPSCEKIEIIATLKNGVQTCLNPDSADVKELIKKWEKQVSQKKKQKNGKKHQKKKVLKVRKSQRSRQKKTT
The experiment is described as follows: CXCL9-induced activated T-cell migration, transwell assay. The format is cell-based. To be noted: peptide 10 μM, chemokine at EC80. The procedure:
as §1
(§2) Briefly, cell migration assays use THP1 cells (human monocyte) and primary human buffy coat white cells (consisting of neutrophil granulocytes, monocytes, and lymphocytes), and activated T-cells. THP1 cells and primary monocytes respond to CCL2, CCL3, CCL5, CCL8 and CXCL4, granulocytes to CXCL1 and CXCL8, activated T-cells to CXCL9/10/11. Assays are performed in 96-well Boyden chambers, and migrated cells counted and characterized using and ATTUNE Flow Cytometer as described. Triplicate assays are performed at the EC80 dose of each chemokine at 10 μM peptide concentration.
(§3) The J:CXCR1 cell line was generated by transfecting Jurkat cells by electroporation with PvuI-linearized plasmid D1398 and selecting with blasticidin (Sigma-Aldrich, Cat #203350, […]). […] J:CXCR1 cells were cultured in RPMI-1640 media (Gibco), supplemented with 10% FBS and 5 mM L-Glutamine with blasticidin. For J:CXCR1 migration assays, 300,000 cells/well were added to the top chamber of a 3 μm Transwell insert (Corning) in 50 μL of migration media (RPMI-1640, 0.5% FBS, 4 mM L-Glutamine, 0.05% DMSO). The bottom chamber contained 150 μL of chemokine, with or without peptide. Cells were migrated at 37° C. in 5% CO2 for 4 hours. The plate was incubated on a shaking platform for 10 minutes, 800 rpm, at 37° C., and 150 μL from the bottom of the plate transferred into a U-bottom plate containing 50 μL of migration media. Cell counts were determined by Attune NxT Flow Cytometer Plate Reader (ThermoFisher), based on cell size parameters FSC-H/SSC-H. Experiments were performed in 3 technical and 3 biological replicates. THP-1 migration assays were carried out using methods known in the art. Activated T-cell assays were carried out using methods known in the art, with the following modifications in the isolation process. Peripheral blood cells were obtained from leucocyte cones (NHS Blood Transfusion Services), following which, T-cells were isolated using two rounds of human CD8+ T-cell isolation kit (480011, BioLegend). At day 10 after activation, T-cells were frozen at 20 E6 cells/ml in TexMACS medium supplemented with 10% DMSO (D2650, Sigma) in liquid nitrogen. Prior to use, activated T-cells were recovered for 24 hours in TexMACs medium at 0.3 E6 cells/ml and incubated at 37° C. in 5% CO2. Chemokine sources are described in Supplementary information Table 3. Statistical significances between control experimental groups was evaluated using Dunnett's test. IC50 experiments were performed at the EC80 dose of chemokine. EC80 was calculated by fitting a chemokine dose-response curve with 3 parameters (fixing the top to 100%). IC50 was calculated by fitting an inhibitor response curve with 4 parameters.

Experiment [1] deals with panel of up to 42 human chemokines. The experiment in a line: Phage-display next generation sequencing screen of overlapping hexadecapeptide libraries, chemokines displayed on streptavidin beads.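 Also: chemokine listed when log2 fold enrichment exceeds 5.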 To be noted: log2E greater than 5, chemokines named by first part of UniProt Entry Name, peptides binding complement C5a (control) excluded. The experiment is classed as binding. The method in brief:
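Phage-display libraries of 55662 overlapping hexadecapeptides from tick and viral chemokine-binding proteins, human chemokines and chemokine receptors screened against up to 42 human chemokines, with hits found by next-generation sequencing. Peptides mapped to parent-protein position with log2 fold enrichment; regions of interest where cumulative residue log2 E exceeds the 95% upper CI of the protein median.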

The target in the next experiment is T3, CXCL11 (Homo sapiens, UniProt O14625).
T3 construct: purchased Peprotech
T3 sequence (O14625 22-94): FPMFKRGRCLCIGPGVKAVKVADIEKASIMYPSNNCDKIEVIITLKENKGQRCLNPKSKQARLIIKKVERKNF
The experiment in a line: CXCL11-induced activated T-cell migration, transwell assay. The experiment is classed as cell-based. To be noted: peptide 10 μM, chemokine at EC80. The procedure:
as §1, §2, §3

The next experiment addresses CXCL12 (Homo sapiens, UniProt P48061). The experiment is classed as cell-based. Also noted: activity in inhibiting migration of activated T cells in comparison to HD2_Y5W: dose or concentration left out as unconfirmed. As to conditions: peptides final concentration as printed, chemokine at EC80. As to the method: FIG. 22. Effect of selected combinatorial HD2 mutations on chemotaxis. FIG. 22A. Box-whisker plot showing the effect of the exemplar single and combinatorically mutant (CM) HD2 peptides on activated-T cell (ATC) migration induced by CXCL12. All experiments were performed as at least three technical and three biological replicates, and individual data points are indicated. […] HD2SCR is a scrambled version of HD2. […] Statistically significant differences (compared to control, HD2_Y5W, coloured blue), using Dunnett's test with correction for multiple comparisons, are indicated by asterisks: ****=P≤0.0001, ***=P≤0.001, **=P≤0.01, *=P≤0.05. All comparisons were made to HD2_Y5W, as it is present in CM539, CM452, and CM304. […] Technical replicates are shown as individual data points. […] The response curve (solid blue line) and its 95% confidence interval (grey ribbon) were calculated using a 4-parameter log-logistic plot. The agonist and estimated IC50 (dotted green line) are indicated.
as §3
Migration assays using THP1, activated T-cell (ATC) and J:CXCR1 (Jurkat cells stably transfected with CXCR1 receptor) were performed as described previously. IC50 experiments were performed at the EC80 dose of chemokine. EC80 was calculated by fitting a chemokine dose-response curve with 3 parameters (fixing the top to 100%). IC50 was calculated by fitting an inhibitor response curve with 4 parameters. R-packages used were ggupset_0.3.0, DescTools_0.99.44, and drc_3.0-1.

Experiment [2] deals with T4, panel of 25 biotinylated chemokines (Homo sapiens, UniProt P48061).
T4 construct: purchased Almac or ProteinFoundry
The experiment is described as follows: Phage-display screen of HD2 combinatorial mutagenesis library. The experiment is classed as binding. As to conditions: CXCL12. An excerpt: FIG. 20. Phage display-combinatorial mutagenesis. FIG. 20A, Tile-plot (bottom panel) showing impact of selected HD2 mutations on Δlog 2 E for all chemokines studied. Δlog 2 E is the difference in log 2 E between the parental wild-type peptide and the mutant variant following phage-display selection. See methods for a description of the strategy used for selecting individual mutations. FIG. 20B, All possible combinations of 16 selected single mutations (coloured using the Taylor scale) at 11 residue locations were combined to create a phage-display library with 3585 mutation combinations. The library included the parental HD2 sequence and single mutations as well. Library cloning, screening and analysis was performed as described in the examples.
Combinations of different mutations identified by saturation mutagenesis selection were then studied to see if they could result in additive or cooperative effects, allowing further evolution of peptide function in a desired direction. Traditionally, the selection of two or more mutations in combination is guided by knowledge of the structure of the protein-peptide interface. This approach works well when designing agents against a single target where the interface structure has been experimentally characterised but is challenging when designing agents active against multiple targets, where the interface structures have not been experimentally characterised. To systematically identify mutation combinations that work well against multiple structurally related targets we explored the possibility of using phage-display to select combinations of mutations that bind CC or XC classes of chemokines. […]
As CC and XC binding peptides appeared to have a different improving mutation spectrum we selected mutations using an algorithm that optimizes CC and XC improving mutations separately. […] The library quality was assessed by NGS AmpliconEZ (50,000 reads), and 3584 of 3585 inserts were identified. […]

In experiment [3] the test system is panel of 24 biotinylated chemokines. The experiment is described as follows: Phage-display screen of HD2 NNK saturation mutagenesis library. The format is binding, human. To be noted: HD2 saturation mutants; chemokines on streptavidin beads; UniProt entry names.
The target in another experiment is T5, CCL3 (Homo sapiens, UniProt P10147).
T5 construct: purchased Peprotech
T5 sequence (P10147 24-92): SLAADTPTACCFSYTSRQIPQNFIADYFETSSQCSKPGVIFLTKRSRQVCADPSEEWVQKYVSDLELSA
The experiment is described as follows: CCL3-induced THP-1 cell migration, transwell assay. The format is cell-based. To be noted: HD2 mutant peptides 10 μM, chemokine at EC80. The procedure:
as §1
Briefly, cell migration assays use THP1 cells (human monocyte) and primary human buffy coat white cells (consisting of neutrophil granulocytes, monocytes, and lymphocytes), and activated T-cells. […] Assays are performed in 96-well Boyden chambers, and migrated cells counted and characterized using and ATTUNE Flow Cytometer as described. […]
The J:CXCR1 cell line was generated by transfecting Jurkat cells by electroporation with PvuI-linearized plasmid D1398 and selecting with blasticidin (Sigma-Aldrich, Cat #203350, 5 g/mL). […] Cell counts were determined by Attune NxT Flow Cytometer Plate Reader (ThermoFisher), based on cell size parameters FSC-H/SSC-H. Experiments were performed in 3 technical and 3 biological replicates. […] Statistical significances between control experimental groups was evaluated using Dunnett's test. […]

Entries after “also recorded” stand apart in the source; their conditions may differ. Ends that are not written are not given here.

Sequence of CXCL12 (P48061 22-89 limits assumed): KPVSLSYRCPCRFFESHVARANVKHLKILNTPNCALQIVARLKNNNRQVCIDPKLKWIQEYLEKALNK
T4 sequence (P48061 22-89 limits assumed): as above

On to CVEITYFGDFGDPSQD [EB429], for which the “inhibition of cell migration” value against CXCL10, on CXCL9 and on CXCL11 was “inhibit cell migration” in each case. In addition, the “Chemokines Bound” value in experiment [1] is given as “CXL10, CXL11,; also recorded: SDF1, CXL13”.
Consider DDDDWDAYAPIWCYFT [CM452], for which, in the experiment with CXCL12, the “activity in inhibiting migration of activated T cells in comparison to HD2_Y5W” value is recorded as “significantly enhanced activity”. Further, the “binding in phage display” value in experiment [2] is on record as “enhanced binding”.
In the same order, the values of DDDDWDDYAPITCYFD [CM539] are “significantly enhanced activity” and “enhanced binding”.
In the same order, the values of “DEDDWDAYAPIWCYFT-NH2 [CM304, DEDDWDAYAPIWCYFT]” are “significantly enhanced activity” and “enhanced binding”.
For EEDDYTAYAPLWCYFT [HD2_W12], in experiment [3], the “Chemokines Bound log2E 1-5” value is reported as “CCL1, CCL15, CCL17, CCL18,; also recorded: CCL19, CCL20, CCL22, CCL25,; also recorded: CCL28, CCL4, X3CL1, SDF1,; also recorded: CXL14” and the “Chemokines Bound log2E > 5” value was “CCL3”. In addition, on CCL3, the “chemotaxis compared with the parental HD2 peptide” value is given as “significant reduction in chemotaxis”.

For the origin of these results see patent US20260234188A1, “CHEMOKINE-BINDING PEPTIDES” (Oxford University Innovation Limited, priority 2022, published 2026).
